# Columns and labels:
# [1] = system: Pan02 cells; assay: Wound healing assay, Pan02; assay type: cell-based, murine; conditions: 0.1 μM PGE2, 24 h, dose-dependent
# Description: (§1) The wound healing assay was performed according to a standard protocol as described before. Briefly, Pan02 and BxPC-3 cells were grown as a confluent monolayer in 12-well plates (Corning, Corning, NY, USA) overnight and starved with serum-free medium for 6 h. The monolayer cells were disrupted with a P100 micropipette tip (JET BIOFIL, Guangzhou, China) and rinsed with PBS to remove detached cells. Medium containing different concentrations of compounds was added subsequently. After 24 h, treated cells were stained with 2 μM calcein-AM (Yeasen, Shanghai, China) for 20 min and washed with PBS. Photos were taken of the area in the scraped zone of each dish at 100× magnification by using an inverted fluorescent microscope (OLYMPUS, Tokyo, Japan).
# [2] = Body weight of mice in Pan02-Luc metastasis model; assay type: in vivo, C57BL/6 mice; conditions: L001 75 mg/kg p.o. daily; gemcitabine 25 mg/kg i.p. twice a week; n = 6
# Description: Male C57/BL6 mice (6–8 weeks) were obtained from the National Rodent Laboratory Animal Resources (NRLAR, Shanghai, China). All mice were housed according to Institutional Animal Care and Use Committee guidelines and under a protocol approved by East China Normal University Ethics Committee with respect to animal care and welfare assurance. The bioluminescent liver metastasis mouse model was established as described previously. In brief, 2 × 10^6 Pan02/luc cells suspended in 50 μL of PBS were injected into mice spleen. […] Tumor metastasis was monitored by using an in vivo imaging system following intraperitoneal injection with D-Luciferin (2 mg per mouse; Promega). Bioluminescence intensity was recorded every seven days by a Xenogen IVIS-200 Optical in vivo imaging system (PerkinElmer; Waltham, MA, USA) for up to 4 weeks. The mouse body weight was measured every other day. Survival curve analysis was performed using GraphPad Prism 7.
# [3] = target: EP4 (Homo sapiens, UniProt P35408); assay: cAMP responsive element (CRE) luciferase reporter assay; assay type: cell-based; design: host or cells: HEK293 (results) / CHO-K1 (methods)
# Description: (§2) CHO-K1 cells or pancreatic cancer cell lines were transfected with a cAMP responsive element (CRE) reporter or TEAD reporter using lipofectamine 2000 according to the manufacturer’s manual. Transfected cells were treated with varied concentrations of compounds for 24 h. Then, cells were lysed and luciferase activities were determined using Dual-Luciferase Reporter Assay Kit (Promega, Madison, WI, USA).
# [4] = target: T1, human EP3 (Homo sapiens, UniProt P43115); assay: Calcium flux assay, human EP3; assay type: cell-based; conditions: CHO-Gα16 cells, PGE2 (EC80)
# T1 construct: expressed in transfected cells; host or cells: CHO-Gα16
# T1 sequence (P43115 1-390): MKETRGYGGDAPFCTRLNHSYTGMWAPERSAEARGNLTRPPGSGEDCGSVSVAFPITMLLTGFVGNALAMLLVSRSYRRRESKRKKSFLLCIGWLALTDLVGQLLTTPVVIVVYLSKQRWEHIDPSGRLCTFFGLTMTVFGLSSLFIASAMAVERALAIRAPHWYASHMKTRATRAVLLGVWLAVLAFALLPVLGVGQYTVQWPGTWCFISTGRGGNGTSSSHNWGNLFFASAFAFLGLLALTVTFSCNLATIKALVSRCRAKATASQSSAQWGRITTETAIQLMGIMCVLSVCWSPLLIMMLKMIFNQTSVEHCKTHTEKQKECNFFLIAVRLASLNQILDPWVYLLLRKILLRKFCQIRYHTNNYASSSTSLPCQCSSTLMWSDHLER
# Description: (§3) Calcium flux assay was conducted as described in our previous study. Briefly, CHO-Gα16 cells were transfected, respectively, with human EP1, human EP2, human EP3, human EP4, monkey EP4, mouse EP4 and rat EP4 overexpression constructs using lipofectamine 2000 according to the manufacturer’s manual. Cells were then seeded into a 96-well black plate with a cell density of 2 × 10^4 cells/100 μL per well for a 16-h culture. On the next day, cells were incubated for 45 min with reagents (100 μL/well) of Calcium-5 Assay Kit (Molecular Devices, San Jose, CA, USA). Then, cells were pre-treated with indicated concentrations of L001 for 15 min and stimulated with PGE2 (EC80). The calcium flux was detected subsequently by a Flexstation® 3 Multi-Mode Microplate Reader (Molecular Devices, San Jose, CA, USA).
# [5] = system: Pan02 cells; assay: 3D Matrigel tumor spheroid invasion assay, Pan02; assay type: cell-based, murine; conditions: 0.1 μM PGE2, day 7
# Description: (§4) The 3D Matrigel invasion assay was performed as described. Pan02 and BxPC-3 cells were plated above a layer of Matrigel (ThermoFisher, Shanghai, China) and covered with growth medium containing 10% Matrigel. The culture medium containing different concentrations of compounds was changed every two days. After 7 days, cells with stellate invasive structure were photographed (OLYMPUS, Tokyo, Japan).
# [6] = target: T2, human EP2 (Homo sapiens, UniProt P43116); assay: Calcium flux assay, human EP2; assay type: cell-based; conditions: CHO-Gα16 cells, PGE2 (EC80)
# T2 construct: expressed in transfected cells; host or cells: CHO-Gα16
# Description: as §3
# [7] = target: T3, human EP1 (Homo sapiens, UniProt P34995); assay: Calcium flux assay, human EP1; assay type: cell-based; conditions: CHO-Gα16 cells, PGE2 (EC80)
# T3 construct: expressed in transfected cells; host or cells: CHO-Gα16
# T3 sequence (P34995 1-402): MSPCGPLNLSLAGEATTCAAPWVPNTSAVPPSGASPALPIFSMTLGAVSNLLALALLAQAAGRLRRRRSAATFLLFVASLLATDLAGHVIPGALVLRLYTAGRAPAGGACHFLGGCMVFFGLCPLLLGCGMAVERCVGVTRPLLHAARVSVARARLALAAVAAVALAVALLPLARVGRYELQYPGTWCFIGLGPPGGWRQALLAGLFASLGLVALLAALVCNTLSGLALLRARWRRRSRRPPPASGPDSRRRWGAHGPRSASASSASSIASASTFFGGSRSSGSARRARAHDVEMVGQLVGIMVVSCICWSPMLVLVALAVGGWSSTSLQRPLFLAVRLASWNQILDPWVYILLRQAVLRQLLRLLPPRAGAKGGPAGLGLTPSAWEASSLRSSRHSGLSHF
# Description: as §3
# [8] = system: BxPC-3 cells; assay: Wound healing assay, BxPC-3; assay type: cell-based, human; conditions: 0.1 μM PGE2, 24 h, dose-dependent
# Description: as §1
# [9] = target: T4, mouse EP4 (Mus musculus, UniProt P32240); assay: Calcium flux assay, mouse EP4; assay type: cell-based
# T4 construct: expressed in transfected cells; host or cells: CHO-Gα16
# Description: as §3
# [10] = system: BxPC-3 cells; assay: 3D Matrigel tumor spheroid invasion assay, BxPC-3; assay type: cell-based, human; conditions: 0.1 μM PGE2, day 7
# Description: as §4
# [11] = system: YAP/TEAD reporter in BxPC-3 cells; assay: TEAD-driven luciferase reporter assay, BxPC-3; assay type: cell-based, human; conditions: 16 h
# Description: as §2, with “Transfected cells were treated with varied concentrations of compounds for 24 h.” left out
# EP4, sequence (P35408 whole entry): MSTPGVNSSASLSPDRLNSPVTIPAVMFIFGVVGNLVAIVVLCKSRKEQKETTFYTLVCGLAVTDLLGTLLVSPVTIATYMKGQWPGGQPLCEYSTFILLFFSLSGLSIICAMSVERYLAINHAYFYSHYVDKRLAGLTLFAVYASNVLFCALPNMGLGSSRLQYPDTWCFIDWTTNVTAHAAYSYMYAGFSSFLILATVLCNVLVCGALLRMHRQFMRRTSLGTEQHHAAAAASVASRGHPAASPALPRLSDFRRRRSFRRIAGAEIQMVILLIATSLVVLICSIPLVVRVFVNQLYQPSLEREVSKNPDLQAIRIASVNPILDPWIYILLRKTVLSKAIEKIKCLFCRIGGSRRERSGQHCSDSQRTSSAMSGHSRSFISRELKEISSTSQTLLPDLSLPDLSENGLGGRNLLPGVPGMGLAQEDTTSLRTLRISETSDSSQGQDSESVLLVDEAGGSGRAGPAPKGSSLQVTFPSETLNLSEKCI
# T4 sequence (P32240 whole entry): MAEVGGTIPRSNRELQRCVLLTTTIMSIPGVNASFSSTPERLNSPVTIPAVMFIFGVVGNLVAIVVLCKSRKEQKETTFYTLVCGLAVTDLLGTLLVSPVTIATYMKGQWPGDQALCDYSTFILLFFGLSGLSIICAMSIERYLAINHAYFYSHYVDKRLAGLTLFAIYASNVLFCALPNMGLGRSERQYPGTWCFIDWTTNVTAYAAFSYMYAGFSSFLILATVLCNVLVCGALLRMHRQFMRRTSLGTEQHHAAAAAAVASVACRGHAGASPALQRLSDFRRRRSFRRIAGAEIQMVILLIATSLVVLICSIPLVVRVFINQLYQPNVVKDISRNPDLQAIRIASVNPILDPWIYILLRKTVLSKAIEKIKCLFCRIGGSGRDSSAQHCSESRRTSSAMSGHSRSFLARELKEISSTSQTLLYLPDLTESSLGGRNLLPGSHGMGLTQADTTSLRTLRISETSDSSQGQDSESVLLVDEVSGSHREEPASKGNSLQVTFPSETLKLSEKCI
# T2 sequence (P43116 whole entry): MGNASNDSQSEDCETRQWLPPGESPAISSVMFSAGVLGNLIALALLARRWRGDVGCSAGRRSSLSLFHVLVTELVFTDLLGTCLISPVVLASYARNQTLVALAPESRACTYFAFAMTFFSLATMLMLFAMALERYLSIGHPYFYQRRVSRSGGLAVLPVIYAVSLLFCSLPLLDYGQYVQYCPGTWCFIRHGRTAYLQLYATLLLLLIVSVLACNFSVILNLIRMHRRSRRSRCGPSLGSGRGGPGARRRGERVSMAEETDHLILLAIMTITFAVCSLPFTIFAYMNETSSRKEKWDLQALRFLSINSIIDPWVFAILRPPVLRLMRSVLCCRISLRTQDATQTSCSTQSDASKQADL
compound,measurement,setting,value
C[C@H](NC(=O)c1c(Cc2cccc(C(F)(F)F)c2)sc2c1CCOC2)c1ccc(C(=O)O)cc1 [L001],PGE2-triggered wound closure,[1],significantly blocked
same,body weight loss,[2],barely found
same,IC50,[3],7.29 ± 0.64 nM
same,antagonism efficacy on EP4 compared with E7046,[3]; CRE reporter assay,over 5 fold
same,IC50,[4],> 10 µM
same,spheroid invasion morphology (filopodium-like protrusions),[5],completely retracted PGE2-induced membrane surface projections
same,IC50,[6],> 10 µM
same,IC50,[7],> 10 µM
same,PGE2-triggered wound closure,[8],significantly blocked
same,IC50,[9],3.2 ± 0.28 nM
same,spheroid invasion morphology (filopodium-like protrusions),[10],completely retracted PGE2-induced membrane surface projections
same,PGE2-driven YAP/TEAD reporter activity,[11],remarkably suppressed

# From PMC8879074, “A Novel Small Molecular Prostaglandin Receptor EP4 Antagonist, L001, Suppresses Pancreatic Cancer Metastasis” (Molecules, 2022)
